Holding throughout (assay): biochemical
What all share (parameters): species or system human cell line lysate

The target in test [1] is Mitogen-activated protein kinase kinase kinase kinase 5 ; MAP4K5 ; Q9Y4K4 (Homo sapiens, UniProt Q9Y4K4).
Test [2] concerns the target Isoform Delta 12 of Calcium/calmodulin-dependent protein kinase type I ; CAMK2D ; Q13557-12 (Homo sapiens, UniProt Q13557).
For test [3], the target named is Inositol polyphosphate multikinase ; IPMK ; Q8NFU5 (Homo sapiens, UniProt Q8NFU5).
Test [4] addresses Isoform 2 of Mitogen-activated protein kinase kinase kinase 20 ; MAP3K20 ; Q9NYL2-2 (Homo sapiens, UniProt Q9NYL2).
In test [5] the target is Ribosomal protein S6 kinase alpha-6 ; RPS6KA6 ; Q9UK32 (Homo sapiens, UniProt Q9UK32).
Test [6] deals with Serine/threonine-protein kinase mTOR ; MTOR ; P42345 (Homo sapiens, UniProt P42345).
In test [7] the target is Rho-associated protein kinase 1 ; ROCK1 ; Q13464 (Homo sapiens, UniProt Q13464).
The target in test [8] is T1, Ephrin type-B receptor 2 ; EPHB2 ; P29323 (Homo sapiens, UniProt P29323).
T1 sequence (P29323 1-1055): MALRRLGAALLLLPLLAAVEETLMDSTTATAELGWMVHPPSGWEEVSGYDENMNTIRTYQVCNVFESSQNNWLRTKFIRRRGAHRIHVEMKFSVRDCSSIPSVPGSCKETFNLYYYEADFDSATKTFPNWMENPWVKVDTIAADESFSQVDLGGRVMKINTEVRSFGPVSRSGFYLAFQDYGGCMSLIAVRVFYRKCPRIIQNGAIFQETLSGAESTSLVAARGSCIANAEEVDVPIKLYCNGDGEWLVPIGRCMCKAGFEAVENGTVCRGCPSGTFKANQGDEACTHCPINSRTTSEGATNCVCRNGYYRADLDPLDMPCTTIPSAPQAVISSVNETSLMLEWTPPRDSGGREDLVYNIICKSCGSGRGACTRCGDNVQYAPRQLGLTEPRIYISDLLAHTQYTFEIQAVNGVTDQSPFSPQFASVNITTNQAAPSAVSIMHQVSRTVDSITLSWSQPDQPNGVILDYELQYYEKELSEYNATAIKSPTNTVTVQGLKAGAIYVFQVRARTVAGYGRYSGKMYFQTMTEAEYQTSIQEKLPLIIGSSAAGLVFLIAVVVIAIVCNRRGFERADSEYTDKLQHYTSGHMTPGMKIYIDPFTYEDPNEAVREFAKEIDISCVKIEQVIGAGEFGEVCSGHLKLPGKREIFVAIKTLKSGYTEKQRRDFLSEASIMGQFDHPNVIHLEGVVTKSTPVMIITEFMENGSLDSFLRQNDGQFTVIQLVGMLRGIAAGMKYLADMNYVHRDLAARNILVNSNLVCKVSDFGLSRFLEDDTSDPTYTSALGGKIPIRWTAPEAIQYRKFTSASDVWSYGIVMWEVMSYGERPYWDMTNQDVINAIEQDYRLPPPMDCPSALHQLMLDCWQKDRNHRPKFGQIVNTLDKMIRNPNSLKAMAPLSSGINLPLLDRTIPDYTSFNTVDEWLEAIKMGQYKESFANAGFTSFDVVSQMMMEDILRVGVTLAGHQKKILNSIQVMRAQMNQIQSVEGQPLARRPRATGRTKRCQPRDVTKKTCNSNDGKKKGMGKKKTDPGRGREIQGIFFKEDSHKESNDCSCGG

Test [9] concerns the target Aurora kinase C ; AURKC ; Q9UQB9 (Homo sapiens, UniProt Q9UQB9).
Test [10] deals with Serine/threonine-protein kinase Chk2 ; CHEK2 ; O96017 (Homo sapiens, UniProt O96017).
Test [11] has as its target Serine/threonine-protein kinase RIO1 ; RIOK1 ; Q9BRS2 (Homo sapiens, UniProt Q9BRS2).
Test [12] deals with Serine/threonine-protein kinase 10 ; STK10 ; O94804 (Homo sapiens, UniProt O94804).
Test [13] has as its target Mitogen-activated protein kinase 1 ; MAPK1 ; P28482 (Homo sapiens, UniProt P28482).
The target of test [14] is LIM domain kinase 2 ; LIMK2 ; P53671 (Homo sapiens, UniProt P53671).
Test [15] concerns the target Isoform 5 of Aurora kinase B ; AURKB ; Q96GD4-5 (Homo sapiens, UniProt Q96GD4).
For test [16], the target named is Serine/threonine-protein kinase MRCK beta ; CDC42BPB ; Q9Y5S2 (Homo sapiens, UniProt Q9Y5S2).
Where [17] appears, read: read-out: BAY-1143572 (10 µM) / %Intensity relative to DMSO.
Setting [18] is: read-out: BAY-1251152 (10 µM) / %Intensity relative to DMSO.

Like-named read-outs stand apart in the source and are kept apart here.

Chain of LIM domain kinase 2 ; LIMK2 ; P53671 (P53671 whole entry, the tested form may be a part, canonical isoform): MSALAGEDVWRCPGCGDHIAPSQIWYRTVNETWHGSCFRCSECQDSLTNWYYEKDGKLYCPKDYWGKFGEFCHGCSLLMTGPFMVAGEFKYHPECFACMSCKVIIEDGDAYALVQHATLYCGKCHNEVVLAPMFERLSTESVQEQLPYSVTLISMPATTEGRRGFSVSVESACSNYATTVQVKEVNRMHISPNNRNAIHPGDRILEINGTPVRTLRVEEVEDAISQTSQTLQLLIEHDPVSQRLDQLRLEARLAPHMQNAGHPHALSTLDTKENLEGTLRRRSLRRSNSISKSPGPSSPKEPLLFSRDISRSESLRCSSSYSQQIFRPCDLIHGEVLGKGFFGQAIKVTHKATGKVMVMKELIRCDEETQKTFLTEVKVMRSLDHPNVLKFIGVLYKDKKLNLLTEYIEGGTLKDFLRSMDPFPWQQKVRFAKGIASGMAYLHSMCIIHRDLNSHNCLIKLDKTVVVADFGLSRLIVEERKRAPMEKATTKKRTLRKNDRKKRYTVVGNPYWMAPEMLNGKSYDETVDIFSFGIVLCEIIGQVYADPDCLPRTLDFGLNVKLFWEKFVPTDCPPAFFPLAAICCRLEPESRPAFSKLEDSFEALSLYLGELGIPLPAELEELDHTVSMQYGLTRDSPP
Chain of Inositol polyphosphate multikinase ; IPMK ; Q8NFU5 (Q8NFU5 whole entry, canonical isoform): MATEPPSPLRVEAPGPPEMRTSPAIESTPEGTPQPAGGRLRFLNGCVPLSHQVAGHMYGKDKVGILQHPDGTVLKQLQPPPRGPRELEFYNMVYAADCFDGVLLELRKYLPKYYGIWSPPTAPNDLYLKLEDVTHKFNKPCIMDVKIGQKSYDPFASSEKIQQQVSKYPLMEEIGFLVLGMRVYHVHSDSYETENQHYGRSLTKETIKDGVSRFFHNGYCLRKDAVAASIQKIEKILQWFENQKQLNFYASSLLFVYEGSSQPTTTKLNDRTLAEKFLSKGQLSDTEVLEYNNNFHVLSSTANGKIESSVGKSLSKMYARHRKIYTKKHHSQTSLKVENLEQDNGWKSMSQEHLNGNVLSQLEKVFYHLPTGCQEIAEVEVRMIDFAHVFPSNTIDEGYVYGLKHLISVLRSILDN
Chain of Rho-associated protein kinase 1 ; ROCK1 ; Q13464 (Q13464 whole entry): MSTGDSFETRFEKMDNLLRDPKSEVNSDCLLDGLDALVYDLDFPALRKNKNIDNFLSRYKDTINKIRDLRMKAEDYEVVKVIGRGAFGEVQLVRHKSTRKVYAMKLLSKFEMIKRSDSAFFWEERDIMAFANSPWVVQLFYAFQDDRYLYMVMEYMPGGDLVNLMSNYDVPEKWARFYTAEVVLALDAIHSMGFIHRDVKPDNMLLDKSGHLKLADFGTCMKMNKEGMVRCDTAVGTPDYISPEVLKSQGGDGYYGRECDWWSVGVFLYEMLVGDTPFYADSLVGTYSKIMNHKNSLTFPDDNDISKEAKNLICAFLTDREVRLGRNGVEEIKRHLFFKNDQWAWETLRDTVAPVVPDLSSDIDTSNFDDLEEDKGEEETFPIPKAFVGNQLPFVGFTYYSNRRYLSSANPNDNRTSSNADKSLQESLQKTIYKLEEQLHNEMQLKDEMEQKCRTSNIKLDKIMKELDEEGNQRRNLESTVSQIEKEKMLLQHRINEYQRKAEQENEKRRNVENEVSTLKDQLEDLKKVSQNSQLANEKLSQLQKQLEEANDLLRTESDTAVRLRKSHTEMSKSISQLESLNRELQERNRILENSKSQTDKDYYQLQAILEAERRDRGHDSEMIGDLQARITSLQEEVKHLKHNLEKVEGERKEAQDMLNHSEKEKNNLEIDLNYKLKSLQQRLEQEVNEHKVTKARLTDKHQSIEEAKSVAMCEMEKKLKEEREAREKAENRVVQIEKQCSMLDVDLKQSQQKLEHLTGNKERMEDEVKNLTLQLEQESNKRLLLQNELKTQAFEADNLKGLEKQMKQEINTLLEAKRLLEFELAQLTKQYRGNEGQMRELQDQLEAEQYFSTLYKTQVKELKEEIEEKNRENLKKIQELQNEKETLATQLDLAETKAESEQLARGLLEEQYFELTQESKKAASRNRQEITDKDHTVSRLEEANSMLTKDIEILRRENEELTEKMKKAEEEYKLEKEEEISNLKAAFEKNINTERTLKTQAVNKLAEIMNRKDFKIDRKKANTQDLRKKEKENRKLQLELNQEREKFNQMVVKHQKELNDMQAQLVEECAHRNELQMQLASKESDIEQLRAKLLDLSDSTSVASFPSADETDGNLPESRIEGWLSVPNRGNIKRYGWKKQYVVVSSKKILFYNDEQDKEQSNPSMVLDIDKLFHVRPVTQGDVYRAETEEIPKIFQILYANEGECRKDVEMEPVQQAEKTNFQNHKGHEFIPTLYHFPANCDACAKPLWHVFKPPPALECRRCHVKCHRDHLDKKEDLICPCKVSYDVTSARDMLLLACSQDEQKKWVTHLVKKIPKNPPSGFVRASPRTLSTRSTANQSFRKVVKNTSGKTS
Chain of Serine/threonine-protein kinase MRCK beta ; CDC42BPB ; Q9Y5S2 (Q9Y5S2 whole entry, one chain of several): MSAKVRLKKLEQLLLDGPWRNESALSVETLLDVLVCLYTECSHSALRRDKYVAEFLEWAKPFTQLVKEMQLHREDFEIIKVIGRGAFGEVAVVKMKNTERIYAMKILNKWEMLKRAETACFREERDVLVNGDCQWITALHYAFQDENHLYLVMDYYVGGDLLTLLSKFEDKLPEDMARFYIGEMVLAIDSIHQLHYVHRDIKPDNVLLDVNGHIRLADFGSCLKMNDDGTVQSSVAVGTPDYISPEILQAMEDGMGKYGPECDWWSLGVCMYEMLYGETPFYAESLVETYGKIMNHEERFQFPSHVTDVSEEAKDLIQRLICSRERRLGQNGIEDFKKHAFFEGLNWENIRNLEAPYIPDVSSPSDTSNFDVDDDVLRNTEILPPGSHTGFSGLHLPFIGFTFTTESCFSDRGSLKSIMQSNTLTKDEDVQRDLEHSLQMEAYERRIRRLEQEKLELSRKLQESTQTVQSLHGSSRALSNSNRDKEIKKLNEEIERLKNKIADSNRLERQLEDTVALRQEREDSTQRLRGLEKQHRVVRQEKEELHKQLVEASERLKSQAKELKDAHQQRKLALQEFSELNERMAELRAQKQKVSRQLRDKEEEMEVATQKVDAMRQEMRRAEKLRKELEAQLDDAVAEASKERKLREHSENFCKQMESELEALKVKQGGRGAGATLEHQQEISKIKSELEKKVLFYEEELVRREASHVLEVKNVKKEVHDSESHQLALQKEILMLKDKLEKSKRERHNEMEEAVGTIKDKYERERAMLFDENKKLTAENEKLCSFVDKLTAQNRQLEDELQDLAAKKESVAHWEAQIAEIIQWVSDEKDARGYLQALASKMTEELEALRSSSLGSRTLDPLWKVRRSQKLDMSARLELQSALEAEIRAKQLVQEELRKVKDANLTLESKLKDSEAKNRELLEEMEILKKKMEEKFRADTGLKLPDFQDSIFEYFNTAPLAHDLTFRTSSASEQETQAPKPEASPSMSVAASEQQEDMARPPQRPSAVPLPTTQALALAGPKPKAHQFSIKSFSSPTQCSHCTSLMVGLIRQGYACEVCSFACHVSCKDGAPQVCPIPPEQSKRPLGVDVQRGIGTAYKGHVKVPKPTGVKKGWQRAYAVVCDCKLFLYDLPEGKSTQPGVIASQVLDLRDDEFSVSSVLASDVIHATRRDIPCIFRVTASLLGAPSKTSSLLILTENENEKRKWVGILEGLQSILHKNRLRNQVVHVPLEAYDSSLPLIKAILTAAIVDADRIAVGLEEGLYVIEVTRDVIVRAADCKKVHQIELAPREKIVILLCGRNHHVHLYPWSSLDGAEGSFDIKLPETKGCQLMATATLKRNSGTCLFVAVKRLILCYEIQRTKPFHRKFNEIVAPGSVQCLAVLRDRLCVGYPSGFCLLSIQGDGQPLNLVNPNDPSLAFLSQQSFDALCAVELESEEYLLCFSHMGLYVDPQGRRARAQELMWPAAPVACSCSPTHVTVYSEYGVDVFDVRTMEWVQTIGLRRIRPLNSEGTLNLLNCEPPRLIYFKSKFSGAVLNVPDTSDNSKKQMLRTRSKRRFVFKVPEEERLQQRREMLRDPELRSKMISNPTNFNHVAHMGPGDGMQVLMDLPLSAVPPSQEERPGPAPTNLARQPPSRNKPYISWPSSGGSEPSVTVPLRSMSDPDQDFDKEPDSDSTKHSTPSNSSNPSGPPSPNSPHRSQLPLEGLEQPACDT
Chain of Ribosomal protein S6 kinase alpha-6 ; RPS6KA6 ; Q9UK32 (Q9UK32 whole entry): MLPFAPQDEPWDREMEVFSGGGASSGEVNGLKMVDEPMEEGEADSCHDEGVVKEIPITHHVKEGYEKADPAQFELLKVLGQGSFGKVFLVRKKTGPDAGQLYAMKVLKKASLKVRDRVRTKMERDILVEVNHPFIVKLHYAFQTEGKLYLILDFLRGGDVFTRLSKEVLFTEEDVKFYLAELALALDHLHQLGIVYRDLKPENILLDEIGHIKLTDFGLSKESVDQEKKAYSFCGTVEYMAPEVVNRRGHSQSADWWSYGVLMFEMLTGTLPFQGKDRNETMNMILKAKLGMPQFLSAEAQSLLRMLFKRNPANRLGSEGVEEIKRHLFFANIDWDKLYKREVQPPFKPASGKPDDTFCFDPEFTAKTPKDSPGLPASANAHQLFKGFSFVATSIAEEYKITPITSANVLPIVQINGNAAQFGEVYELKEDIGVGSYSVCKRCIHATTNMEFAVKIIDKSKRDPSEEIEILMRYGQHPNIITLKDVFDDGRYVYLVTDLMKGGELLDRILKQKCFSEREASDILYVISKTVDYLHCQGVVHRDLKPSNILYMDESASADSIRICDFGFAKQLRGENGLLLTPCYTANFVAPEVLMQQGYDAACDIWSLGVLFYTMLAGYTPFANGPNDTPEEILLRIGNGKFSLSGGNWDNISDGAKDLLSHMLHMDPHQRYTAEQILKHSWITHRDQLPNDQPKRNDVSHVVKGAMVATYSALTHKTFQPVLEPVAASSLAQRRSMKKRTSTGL

Take `COc1cc(F)ccc1-c1ncnc(Nc2cccc(C[S@](C)(=N)=O)c2)n1` [BAY-1143572]: the remaining activity at 10 µM in test [1] (setting [17]) amounted to 97.6%; in test [2] (setting [17]) it was 124%; in test [3] (setting [17]) it was 107%; in [4] (setting [17]), 65.2%; in test [5] (setting [17]), 133%; in test [6] (setting [17]), 98.9%. The remaining activity at 10 µM turned out to be 114% in [7] (setting [17]); 84.3% in [8] (setting [17]); 105% in [9] (setting [17]); 116% in [10] (setting [17]); 106% in [11] (setting [17]); 91.3% in test [12] (setting [17]). Besides, the remaining activity at 10 µM in [13] (setting [17]) came out at 112%; in test [14] (setting [17]) it was 78%; in [15] (setting [17]), 101%; in test [16] (setting [17]), 102%.

Turning to `COc1cc(F)ccc1-c1cc(Nc2cc(CS(C)(=N)=O)ccn2)ncc1F` (centres unmarked) [BAY-1251152], the remaining activity at 10 µM was 55.3% in test [1] (setting [18]); 106% in test [2] (setting [18]); 96.1% in test [3] (setting [18]); 81.6% in test [4] (setting [18]); 118% in test [5] (setting [18]); 103% in test [6] (setting [18]). Also, the remaining activity at 10 µM in test [7] (setting [18]) amounted to 110%; in test [8] (setting [18]), 105%; in [9] (setting [18]), 41.7%; in test [10] (setting [18]), 106%; in test [11] (setting [18]), 96.7%; in test [12] (setting [18]), 74.5%. The remaining activity at 10 µM is 105% in test [13] (setting [18]), 109% in test [14] (setting [18]), 65% in test [15] (setting [18]) and 101% in test [16] (setting [18]).

The record behind these values is paper doi:10.1101/2024.08.13.607785v1 (biorxiv, 2024).
